Tested on: 997726-040-R-J2-PDC tumor spheroids, viability
Assay: Anticancer human tumor 997726-040-R-J2-PDC patient-derived squamous cell lung carcinoma cell line growth inhibition [PI3K]
Conditions: spheroids with HUVEC and MSC; for IC50: curve of first compound; for viability, T/C: stronger effect = lower value
Excerpt: Combinatorial screen of targeted agents with the PI3K inhibitors inavolisib, alpelisib, duvelisib, and copanlisib in multi-cell type tumor spheroids
A high-throughput screen of multi-cell type tumor spheroids was designed to identify active combinations of targeted small molecules and PI3K pathway inhibitors. Complex spheroids include a stromal component modeled by human endothelial cells (HUVEC) and fibroblasts modeled by human mesenchymal stem cells (MSCs). The concentration ranges selected for each drug and investigational agent were based upon clinically achievable concentrations if the clinical Cmax of the agent was known.
Compounds. The drugs and investigational agents: inavolisib (NSC800729), alpelisib (NSC765974), duvelisib (NSC772469), copanlisib (NSC816437), ipatasertib (NSC767898), afuresertib (NSC778305), talazoparib (NSC767125), sapanisertib (NSC764658), selumetinib (NSC741078), tovorafenib (DAY101, NSC766906), vemurafenib (NSC761431), ravoxertinib (NSC781343), sotorasib (NSC818433), MRTX1133 (NSC 836407), abemaciclib (NSC 768073), palbociclib (NSC758247), venetoclax (NSC 766270), SY5609 (NSC837396), enzalutamide (NSC755605), and darolutamide (NSC825331), were obtained from the National Cancer Institute (NCI) Developmental Therapeutics Program Chemical Repository. The FDA-approved anticancer drug set is available from the NCI Developmental Therapeutics Program. […] The stock solutions were prepared in dimethyl sulfoxide (DMSO, Sigma-Aldrich, St. Louis, MO, cat. D2650) at 800-fold the tested concentration and stored at -70 degrees C prior to their use. All drugs and investigational agents were tested over a range starting from a high concentration at or near the clinical Cmax and decreasing in half-log increments. If the clinical Cmax for an agent had not been determined, the highest concentration tested was 10 microM.
Cell Culture. All cells were maintained in an incubator at 37 degrees C and 5% CO2 with 95% humidity. The PDC lines were cultured according to standard operating procedures established by the NCI PDMR (https://pdmr.cancer.gov/sops/default.htm). All PDCs were thawed and cultured in Matrigel-coated flasks prepared with a working solution of 1X Ham's F-12 nutrient mix, without supplementation (Invitrogen, Waltham, MA, cat. 11765054), 100 U/mL penicillin-streptomycin (Invitrogen, cat. 15140122), and 2.5% Matrigel (Corning Inc., Corning, NY, cat. 354248) for the first three passages. The 354836-022-R-J1-PDC, 475296-252-R-J1-PDC, and 997726-040-R-J2-PDC lines were cultured in 6A media, which includes advanced DMEM/F-12 (Thermo Fisher Scientific, cat. 12634028), 10 mM HEPES (Thermo Fisher Scientific, cat. 15630080), 1X GlutaMAX supplement (Thermo Fisher Scientific, cat. 35050061), 0.1 mg/mL primocin (InvivoGen, San Diego, CA, cat. ant-pm-2), 10% defined fetal bovine serum, heat inactivated (HyClone Laboratories Inc., Logan, UT, cat. SH30070.03HI), 50% L-WRN conditioned media (ATCC, cat. CRL-3276), 1.25 mM N-Acetyl-L-cysteine (Sigma-Aldrich, cat. A9165), 10 mM nicotinamide (Sigma-Aldrich, cat. N0636), 1X B-27 supplement (Thermo Fisher Scientific, cat. 17504044), 1X N-2 supplement (Thermo Fisher Scientific, cat. 17502048), and 10 microM Y-27632 dihydrochloride (Tocris Bioscience, Bristol, United Kingdom, cat. 1254). The 624824-186-R-J2-PDC line was cultured in 6C/Colon 1B media, which includes all 6A media components plus 50 ng/mL human EGF recombinant protein (Thermo Fisher Scientific, cat. PHG0311). […]
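Further: spheroids exposed to compounds for seven days before readout.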

CC(=O)c1c(C)c2cnc(Nc3ccc(N4CCNCC4)cn3)nc2n(C2CCCC2)c1=O + Cc1nc(NC(=O)N2CCCC2C(N)=O)sc1-c1ccnc(C(C)(C)C(F)(F)F)c1
IC50 (second compound 0.0316 µM): > 100 nM
IC50 (second compound 0.1 µM): 58.7 nM
IC50 (second compound 0.316 µM): 19.7 nM
IC50 (second compound 1 µM): < 0.316 nM
IC50 (second compound 3.16 µM): < 0.316 nM
IC50 (second compound 10 µM): < 0.316 nM
viability, T/C (second compound 0.0316 µM, first compound 0.000316 µM): 94.4%
viability, T/C (second compound 0.0316 µM, first compound 0.001 µM): 90.6%
viability, T/C (second compound 0.0316 µM, first compound 0.00316 µM): 83.3%
viability, T/C (second compound 0.0316 µM, first compound 0.01 µM): 72.9%
viability, T/C (second compound 0.0316 µM, first compound 0.0316 µM): 75.5%
viability, T/C (second compound 0.0316 µM, first compound 0.1 µM): 51.9%
viability, T/C (second compound 0.1 µM, first compound 0.000316 µM): 81.5%
viability, T/C (second compound 0.1 µM, first compound 0.001 µM): 74.8%
viability, T/C (second compound 0.1 µM, first compound 0.00316 µM): 71.9%
viability, T/C (second compound 0.1 µM, first compound 0.01 µM): 65.2%
viability, T/C (second compound 0.1 µM, first compound 0.0316 µM): 59.5%
viability, T/C (second compound 0.1 µM, first compound 0.1 µM): 43.1%
viability, T/C (second compound 0.316 µM, first compound 0.000316 µM): 53.4%
viability, T/C (second compound 0.316 µM, first compound 0.001 µM): 59%
viability, T/C (second compound 0.316 µM, first compound 0.00316 µM): 52.9%
viability, T/C (second compound 0.316 µM, first compound 0.01 µM): 55.7%
viability, T/C (second compound 0.316 µM, first compound 0.0316 µM): 46.4%
viability, T/C (second compound 0.316 µM, first compound 0.1 µM): 34.8%
viability, T/C (second compound 1 µM, first compound 0.000316 µM): 41.9%
viability, T/C (second compound 1 µM, first compound 0.001 µM): 44.1%
viability, T/C (second compound 1 µM, first compound 0.00316 µM): 40.1%
viability, T/C (second compound 1 µM, first compound 0.01 µM): 35.5%
viability, T/C (second compound 1 µM, first compound 0.0316 µM): 29.1%
viability, T/C (second compound 1 µM, first compound 0.1 µM): 28.4%
viability, T/C (second compound 3.16 µM, first compound 0.000316 µM): 29.6%
viability, T/C (second compound 3.16 µM, first compound 0.001 µM): 30.5%
viability, T/C (second compound 3.16 µM, first compound 0.00316 µM): 26.2%
viability, T/C (second compound 3.16 µM, first compound 0.01 µM): 27.7%
viability, T/C (second compound 3.16 µM, first compound 0.0316 µM): 27.2%
viability, T/C (second compound 3.16 µM, first compound 0.1 µM): 18.6%
viability, T/C (second compound 10 µM, first compound 0.000316 µM): 19.2%
viability, T/C (second compound 10 µM, first compound 0.001 µM): 15.7%
viability, T/C (second compound 10 µM, first compound 0.00316 µM): 13.4%
viability, T/C (second compound 10 µM, first compound 0.01 µM): 14.9%
viability, T/C (second compound 10 µM, first compound 0.0316 µM): 11.8%
viability, T/C (second compound 10 µM, first compound 0.1 µM): 10.5%

From PubChem BioAssay AID1963964 (Molecular Pharmacology Branch, DTP, NCI, 2024)
